Assay results taken from ChEMBL document CHEMBL5053556, “Design, Synthesis, and Biological Evaluation of a Novel Series of Teriflunomide Derivatives as Potent Human Dihydroorotate Dehydrogenase Inhibitors for Malignancy Treatment” (J Med Chem, 2021).

What was measured:
[1] = Plasma protein binding in rat at 10 uM incubated for 5 hrs by LC-MS analysis; assay type: ADME, cell-free; settings: read-out: PPB (converted)
Raji [2] = assay: Antitumor activity against human Raji cells xenografted in NOD-SCID mouse assessed as tumor growth inhibition at 40 mg/kg, po administered for 25 days; assay type: functional; settings: 600 h, time 25 day, read-out: TGI
[3] = target: T1, Dihydroorotate dehydrogenase (quinone), mitochondrial (Homo sapiens, UniProt Q02127); settings: dose 100.0 nM, time 30.0 min
Raji [4] = assay: Antiproliferative activity against human Raji cells assessed as cell growth inhibition incubated for 96 hrs by MTT assay; assay type: functional, cell-based
[5] = Plasma protein binding in rat at 0.1 uM incubated for 5 hrs by LC-MS analysis; assay type: ADME, cell-free; settings: read-out: PPB (converted)
[6] = target: T1, Dihydroorotate dehydrogenase (quinone), mitochondrial
Description: Inhibition of human DHODH using dihydroorotate substrate preincubated for 30 mins followed by substrate addition by DCIP based microplate reader analysis

[7] = Plasma protein binding in rat at 1 uM incubated for 5 hrs by LC-MS analysis; assay type: ADME, cell-free; settings: read-out: PPB (converted)
L02 = assay: cells; assay type: ADME, cell-based; settings: Homo sapiens, L02, 96 h
Description: Cytotoxicity against human L02 cells assessed as cell growth inhibition incubated for 96 hrs by MTT assay

[8] = AUC(0 to t) in Sprague-Dawley rat at 15 mg/kg, po measured after 48 hrs by LC-MS analysis; assay type: ADME, organism-based; design: dose 15 mg/kg, time 48 hrs, route po; settings: in vivo
[9] = Clearance in Sprague-Dawley rat at 5 mg/kg, iv measured after 48 hrs by LC-MS analysis; assay type: ADME, organism-based; settings: in vivo, iv, 5 mg/kg, 48 h
Raji [10] = assay: Antiproliferative activity against human Raji cells assessed as cell growth inhibition at 0.1 uM preincubated with uridine for 24 hrs followed by compound addition and measured after 72 hrs by MTT assay; assay type: functional; design: scale not given: the % may be the effect or the level left
Raji [11] = assay: Antiproliferative activity against human Raji cells assessed as cell growth inhibition at 0.06 uM preincubated with uridine for 24 hrs followed by compound addition and measured after 72 hrs by MTT assay; assay type: functional; design: scale not given: the % may be the effect or the level left
Mus musculus [12] = assay: Toxicity in NOD-SCID mouse xenografted with human Raji cells assessed as change in UREAL at 40 mg/kg, po administered for 25 days; assay type: organism-based; settings: in vivo, 600 h, time 25 day
Raji [13] = assay: Antiproliferative activity against human Raji cells assessed as cell growth inhibition at 0.4 uM preincubated with uridine for 24 hrs followed by compound addition and measured after 72 hrs by MTT assay; assay type: functional; design: scale not given: the % may be the effect or the level left
[14] = Clearance in Sprague-Dawley rat at 15 mg/kg, po measured after 48 hrs by LC-MS analysis; assay type: ADME, organism-based; settings: in vivo
Raji [15] = assay: Antiproliferative activity against human Raji cells assessed as cell growth inhibition at 0.2 uM incubated for 96 hrs by MTT assay; assay type: functional; design: scale not given: the % may be the effect or the level left
[16] = Acute toxicity in BALB/c mouse assessed as effect on liver at 400 mg/kg, po measured on day 14 by H and E staining based assay; assay type: organism-based; settings: in vivo, 336 h, time 14 day
[17] = Oral bioavailability in Sprague-Dawley rat at 15 mg/kg measured after 48 hrs by LC-MS analysis; assay type: ADME, organism-based; settings: in vivo
Raji [18] = assay: Antiproliferative activity against human Raji cells assessed as cell growth inhibition at 0.2 uM preincubated with uridine for 24 hrs followed by compound addition and measured after 72 hrs by MTT assay; assay type: functional; design: scale not given: the % may be the effect or the level left
SUD4 = assay: Antiproliferative activity against human SU-DHL-4 cells assessed as cell growth inhibition incubated for 96 hrs by MTT assay; assay type: functional, cell-based; settings: SU-DHL-4, 96 h
[19] = Drug distribution in NOD-SCID mouse lung at 40 mg/kg, po administered for 25 days by LC-MS analysis; assay type: ADME, organism-based; settings: in vivo, 600 h, time 25 day
SU-DHL-6 = assay: Antiproliferative activity against human SU-DHL-6 cells assessed as cell growth inhibition incubated for 96 hrs by MTT assay; assay type: functional, cell-based; settings: SU-DHL-6, 96 h
[20] = Acute toxicity in BALB/c mouse assessed as effect on spleen at 400 mg/kg, po measured on day 14 by H and E staining based assay; assay type: organism-based; settings: in vivo, 336 h, time 14 day
Raji [21] = assay: Induction of cell cycle arrest in human Raji cells assessed as accumulation of cells at S phase at 0.125 uM after 24 hrs by propidium iodide staining based flow cytometric analysis (reference value: 45.7%); assay type: functional
[22] = Half life in Sprague-Dawley rat at 15 mg/kg, po measured after 48 hrs by LC-MS analysis; assay type: ADME, organism-based; settings: in vivo
[23] = AUC(0 to t) in Sprague-Dawley rat at 5 mg/kg, iv measured after 48 hrs by LC-MS analysis; assay type: ADME, organism-based; design: time 48 hrs, dose 5 mg/kg, route iv; settings: in vivo, 48 h
[24] = Microsomal stability in mouse liver microsomes assessed as half life at 1 uM measured upto 120 mins in presence of NADPH by LC-MS analysis; assay type: ADME, Microsome
Raji [25] = assay: Antitumor activity against human Raji cells xenografted in NOD-SCID mouse assessed as tumor growth inhibition at 15 mg/kg, po administered for 25 days; assay type: functional; settings: 600 h, time 25 day, read-out: TGI
Mus musculus [26] = assay: Toxicity in NOD-SCID mouse xenografted with human Raji cells assessed as change in ALT level at 40 mg/kg, po administered for 25 days; assay type: organism-based; settings: in vivo, 600 h, time 25 day
[27] = Acute toxicity in BALB/c mouse assessed effect on body weight at 400 mg/kg, po; assay type: organism-based; settings: in vivo
[28] = Acute toxicity in BALB/c mouse assessed as effect on kidney at 400 mg/kg, po measured on day 14 by H and E staining based assay; assay type: organism-based; settings: in vivo, 336 h, time 14 day
[29] = Acute toxicity in BALB/c mouse assessed as effect on heart at 400 mg/kg, po measured on day 14 by H and E staining based assay; assay type: organism-based; settings: in vivo, 336 h, time 14 day
Mus musculus [30] = assay: Toxicity in NOD-SCID mouse xenografted with human Raji cells assessed as change in uric acid level at 40 mg/kg, po administered for 25 days; assay type: organism-based; settings: in vivo, 600 h, time 25 day
HEL = assay: Antiproliferative activity against human HEL cells assessed as cell growth inhibition incubated for 96 hrs by MTT assay; assay type: functional, cell-based
[31] = Cmax in Sprague-Dawley rat at 15 mg/kg, po measured after 48 hrs by LC-MS analysis; assay type: ADME, organism-based; design: dose 15 mg/kg, time 48 hrs, route po; settings: in vivo
[32] = Acute toxicity in BALB/c mouse assessed change in behavior at 400 mg/kg, po; assay type: organism-based; settings: in vivo
[33] = Drug distribution in NOD-SCID mouse tumor at 40 mg/kg, po administered for 25 days by LC-MS analysis; assay type: ADME, organism-based, Neoplasm; settings: in vivo, 600 h, time 25 day
THP-1 = assay: Antiproliferative activity against human THP-1 cells assessed as cell growth inhibition incubated for 96 hrs by MTT assay; assay type: functional, cell-based; settings: THP-1, 96 h
[34] = Microsomal stability in human liver microsomes assessed as half life at 1 uM measured upto 120 mins in presence of NADPH by LC-MS analysis; assay type: ADME, Microsome
Raji [35] = assay: Antitumor activity against human Raji cells xenografted in NOD-SCID mouse assessed as tumor growth inhibition at 30 mg/kg, po administered for 25 days; assay type: functional; settings: 600 h, time 25 day, read-out: TGI
[36] = Tmax in Sprague-Dawley rat at 15 mg/kg, po measured after 48 hrs by LC-MS analysis; assay type: ADME, organism-based; settings: in vivo
MV4-11 = assay: Antiproliferative activity against human MV4-11 cells assessed as cell growth inhibition incubated for 96 hrs by MTT assay; assay type: functional, cell-based; settings: MV4-11, 96 h
Raji [37] = assay: Antiproliferative activity against human Raji cells assessed as cell growth inhibition at 0.4 uM incubated for 96 hrs by MTT assay; assay type: functional; design: scale not given: the % may be the effect or the level left

T1 sequence (Q02127 whole entry): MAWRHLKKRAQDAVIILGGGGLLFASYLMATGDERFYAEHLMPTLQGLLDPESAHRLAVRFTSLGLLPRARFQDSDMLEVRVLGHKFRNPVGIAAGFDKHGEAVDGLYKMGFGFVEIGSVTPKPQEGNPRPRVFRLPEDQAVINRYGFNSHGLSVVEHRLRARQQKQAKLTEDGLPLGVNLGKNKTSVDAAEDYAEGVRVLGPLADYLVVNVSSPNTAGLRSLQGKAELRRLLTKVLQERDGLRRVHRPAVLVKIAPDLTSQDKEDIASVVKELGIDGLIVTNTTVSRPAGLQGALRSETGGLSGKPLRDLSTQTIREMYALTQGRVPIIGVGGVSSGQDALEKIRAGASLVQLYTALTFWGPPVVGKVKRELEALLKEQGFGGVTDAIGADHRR

Molecule `C/C(O)=C(\C#N)C(=O)Nc1cc(O[C@@H](C)C(F)(F)F)c(C(=O)Nc2c(F)cccc2F)cc1F` has a fraction unbound at 5 h, 10 µM [1] of 0.007, an inhibition in vivo at 40 mg/kg (Raji [2]) of 83.6% and an inhibition [3] of 88.9%. For the same molecule, the IC50 (Raji [4]) was 7.7 nM, the fraction unbound at 5 h, 0.1 µM [5] was 0.099 and the IC50 [6] was 16 nM. It also gave a fraction unbound at 5 h, 1 µM [7] of 0.014, an IC50 (L02) of 518 nM and an AUC(0-t) at 48 h [8] of 29500 ng·h/mL. The CL [9] was 10 mL/min/kg, the Activity (Raji [10]) was 6.2% and the Activity (Raji [11]) was 3.3%. The Activity (Mus musculus [12]) was “Non-Toxic”, the Activity (Raji [13]) was 21.3% and the CL/F [14] was 10 mL/min/kg. The Activity (Raji [15]) was 58.7%, the Activity [16] was “Non-Toxic” and the bioavailability [17] was 31.1%. For the same molecule, the Activity (Raji [18]) was 17.1%, the IC50 (SUD4) was 20 nM and the Drug uptake [19] was “Active”. The IC50 (SU-DHL-6) was 20 nM, the Activity [20] was “Non-Toxic” and the Activity (Raji [21]) was 64.4%. For the same molecule, the half-life [22] was 10.1 h, the AUCt [23] was 31644 ng·h/mL and the half-life at 1 µM [24] was 8.25 h. For the same molecule, the inhibition in vivo at 15 mg/kg (Raji [25]) was 72.2%, the Activity (Mus musculus [26]) was “Non-Toxic” and the Activity [27] was “Non-Toxic”. For the same molecule, the Activity [28] was “Non-Toxic”, the Activity [29] was “Non-Toxic” and the Activity (Mus musculus [30]) was “Non-Toxic”. The IC50 (HEL) was 20 nM, the Cmax [31] was 1270 ng/mL and the Activity [32] was “Non-Toxic”. For the same molecule, the Drug uptake [33] was “Active”, the IC50 (THP-1) was 20 nM and the half-life at 1 µM [34] was 23.1 h. The inhibition in vivo at 30 mg/kg (Raji [35]) was 81.4%, the Tmax [36] was 18 h and the IC50 (MV4-11) was 20 nM. It also gave an Activity (Raji [37]) of 64.5%.
